Values of other authors, collected in US20060287301A1, “Novel formulations for phenothiazines, including fluphenazine and its derivatives” (priority 2005, published 2006).
Structures can show the parent of a compound that is named as a salt. Where two headings read alike, the source gives them in different places.

Conditions: words only

Structure (SMILES)	solubility in water	solubility in water (HCl)
OCCN1CCN(CCCN2c3ccccc3Sc3ccc(C(F)(F)F)cc32)CC1 [Fluphenazine, fluphenazine]	marginally water soluble	–
OCCN1CCN(CCCN2c3ccccc3Sc3ccc(C(F)(F)F)cc32)CC1 [Fluphenazine HCl]	–	poorly soluble
